Reference: PubChem BioAssay (NCI)
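Cultured in 96-well plates, cells were exposed to test compound for 48 hours across five concentrations. TGI: concentration producing complete growth inhibition.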

Legend:
Assay in all cases: DTP human tumour cell line panel, 48 h
EKVX NSCLC = system: EKVX NSCLC
DU-145 prostate = system: DU-145 prostate
NCI-H522 lung = system: NCI-H522 lung
HT29 colon = system: HT29 colon
ACHN renal = system: ACHN renal
SN12C renal = system: SN12C renal
HS 578T breast = system: HS 578T breast
SK-OV-3 ovarian = system: SK-OV-3 ovarian
U251 CNS = system: U251 CNS

Row | Structure (SMILES) | TGI (EKVX NSCLC) | TGI (DU-145 prostate) | TGI (NCI-H522 lung) | TGI (HT29 colon) | TGI (ACHN renal) | TGI (SN12C renal) | TGI (HS 578T breast) | TGI (SK-OV-3 ovarian) | TGI (U251 CNS)
1 | c1ccc(COc2ccc(CC3SCCCS3)cc2)cc1 | > 100 µM | > 100 µM | > 100 µM | > 100 µM | > 100 µM |  |  |  | 
2 | CC(=O)N=C(N=Nc1c(O)[nH]c2ccc(C)cc12)NC(C)=O | > 100 µM | > 100 µM | > 100 µM | > 100 µM | > 100 µM | > 100 µM | > 100 µM | > 100 µM | > 100 µM
3 | O=C(NN=C1CCN(Cc2ccccc2)CC1)C(O)(c1ccccc1)c1ccccc1 | > 100 µM | > 100 µM |  | > 100 µM |  | > 100 µM | > 100 µM | > 100 µM | > 100 µM
4 | Cc1cc2nc3n[nH]c(N)c3nc2cc1C | > 100 µM | > 100 µM | > 100 µM | > 100 µM | > 100 µM | > 100 µM | > 100 µM | > 100 µM | > 100 µM
5 | CCOP(=O)(OCC)C(NC(=O)OCC(Cl)(Cl)Cl)n1nnc(C(=O)OC)c1C(=O)OC (stereo not given) | > 100 µM | > 100 µM | > 100 µM | > 100 µM | > 100 µM |  | > 100 µM | > 100 µM | > 100 µM
6 | COc1c2c(c(OC)c3c1c(=O)c1ccccc1n3C)OCO2 | > 100 µM | > 100 µM | > 43.1 µM | > 100 µM | > 100 µM | > 100 µM | > 100 µM | > 100 µM | > 100 µM
7 | Clc1ccc(N=C/C=C/Nc2ccc(Cl)cn2)nc1 | 13.9 µM | 31.6 µM | 28.4 µM | 22.1 µM | 25.1 µM | 28.6 µM | 23.3 µM | 36.6 µM | 20.7 µM
8 | CC(=O)/C(C=Nc1c(C)n(C)n(-c2ccccc2)c1=O)=C(/C)O | > 100 µM | > 100 µM | > 100 µM |  | > 100 µM | > 100 µM |  | > 100 µM | > 100 µM
9 | CCOC(=O)C1(C(=O)OCC)C[C@]23OCCC(=O)[C@H]2[C@H]2C(=O)OC(C)(C)O[C@]23C1 | > 100 µM | > 100 µM | > 100 µM | > 100 µM | > 100 µM | > 100 µM | > 100 µM |  | > 100 µM
10 | Cc1cc(-c2ccc(C(=O)O)[nH]2)on1 | > 100 µM | > 100 µM | > 100 µM | > 100 µM | > 100 µM |  | > 100 µM | > 100 µM | > 100 µM
11 | O=C(Cn1c(=O)ccn(C2OC(CO)C(O)C2F)c1=O)c1ccc(F)cc1 (stereo not given) | > 100 µM | > 100 µM | > 100 µM | > 100 µM | > 100 µM | > 100 µM | > 100 µM |  | > 100 µM
12 | COc1ccc2[nH]c(CCNC(=O)c3cc([N+](=O)[O-])cc([N+](=O)[O-])c3)cc2c1 |  | > 100 µM |  | > 100 µM |  | > 100 µM | > 100 µM | > 100 µM | 78.1 µM
13 | CCN1CC2=C(N=c3s/c(=C\c4ccc(Cl)cc4)c(=O)n3C2c2ccc(Cl)cc2)/C(=C/c2ccc(Cl)cc2)C1 (stereo not given) | > 100 µM | > 100 µM | > 100 µM | > 100 µM | > 100 µM |  | > 100 µM | > 100 µM | > 100 µM
14 | c1ccc2c(c1)ccc1nc(-c3ccc4c(c3)OCO4)c3c(c12)CCCC3 | > 100 µM |  |  | > 100 µM | > 100 µM | 98.6 µM | 28.5 µM | > 100 µM | > 100 µM
15 | CCOC(=O)C1C(=O)CC(O)(OCC)C(C(=O)OCC)C1c1ccc(OC)cc1 (stereo not given) | > 100 µM | > 100 µM | > 100 µM | > 100 µM | > 100 µM | > 100 µM |  |  | > 100 µM
16 | CC(C(=O)N1C(=O)N(C(=O)C(C)C(O)c2ccccc2)C(c2ccccc2)C1c1ccccc1)C(O)c1ccccc1 (stereo not given) |  | > 100 µM | 48.4 µM | 18.8 µM | > 100 µM | 37.3 µM | 95.1 µM |  | 27.8 µM
17 | CCN(CC)CCn1c(C(C)(C)C)nc2ccccc21 | > 100 µM | > 100 µM | > 100 µM | > 100 µM | > 100 µM | > 100 µM |  | > 100 µM | > 100 µM
18 | C=C[C@@H]1OC(=O)O[C@H]1CO | > 100 µM | > 100 µM |  | > 100 µM | > 100 µM | > 100 µM | > 100 µM | > 100 µM | > 100 µM
19 | S=c1[nH]nc(COc2ccc3c(c2)CCCC3)n1/N=C/c1ccc(Cl)cc1 | 34.6 µM | 33 µM | 28.9 µM |  | 36 µM | 37.9 µM | 39.7 µM | 32.4 µM | 34.6 µM
20 | C[C@]12CC[C@@H]3c4ccc(O)cc4CC[C@H]3[C@@H]1C/C(=C\c1ccc([N+](=O)[O-])cc1)C2=O | > 100 µM | > 100 µM | 65.4 µM | 37.2 µM | > 100 µM | > 100 µM |  | > 100 µM | > 100 µM
21 | COC(=O)c1ccccc1C1CN=NC12Cc1ccc3ccccc3c1C2=O (stereo not given) | > 100 µM | > 100 µM | > 100 µM |  | > 100 µM | > 100 µM | > 100 µM |  | > 100 µM
22 | Cc1ccc(-c2c(C#N)c(-c3ccc(Cl)cc3)c(C#N)c(=O)n2NS(=O)(=O)c2ccccc2)cc1 | > 100 µM |  | > 100 µM | > 100 µM | > 100 µM | > 100 µM | > 100 µM | > 100 µM | > 100 µM
23 | CC(=O)ON(OC(C)=O)c1ccc(C)cc1 | > 100 µM | > 100 µM | > 100 µM | > 100 µM | > 100 µM |  | > 100 µM | > 100 µM | > 100 µM
24 | O=C(OCCN=C1c2ccccc2CCc2ccccc21)c1cc([N+](=O)[O-])cc([N+](=O)[O-])c1 | > 31.6 µM | > 31.6 µM |  | > 31.6 µM | > 31.6 µM | > 31.6 µM | > 31.6 µM | > 100 µM | > 100 µM
25 | COc1c(CC=C(C)C)c(O)c(C(CC(C)C)c2c(O)c(C(C)=O)c(O)c3c2OC(C(C)(C)O)C3)c(O)c1C(C)=O (stereo not given) | 11.6 µM | > 12.5 µM | > 12.5 µM | > 12.5 µM | > 12.5 µM | > 12.5 µM | > 12.5 µM |  | 
26 | NCc1ccc(-c2ccc(-c3ccc(-c4ccc(CN)s4)s3)s2)s1 | > 100 µM | > 100 µM | > 100 µM | > 100 µM | > 100 µM | > 100 µM |  | > 100 µM | > 100 µM
